# Test results: ChEMBL document CHEMBL3102771, “Regioselective synthesis of 3-benzyl substituted pyrimidino chromen-2-ones and evaluation of anti-microbial and anti-biofilm activities” (2014)
# The source made the active and inactive calls. The calls are words filed in the database; no cut-off is given here.
# Legend:
# Assay type in all cases: functional
# [1] = tested on: Pseudomonas aeruginosa; assay: Antibiofilm activity against Pseudomonas aeruginosa MTCC 2453 after 24 hrs by crystal violet staining technique
# [2] = tested on: Staphylococcus aureus; assay: Antimicrobial activity against Staphylococcus aureus MLS-16 MTCC 2940 assessed as growth inhibition after 24 hrs by well diffusion method; settings: MLS-16 MTCC 2940, 24 h
# [3] = tested on: Pseudomonas aeruginosa; assay: Antimicrobial activity against Pseudomonas aeruginosa MTCC 2453 assessed as growth inhibition after 24 hrs by well diffusion method; settings: MTCC 2453, 24 h
# [4] = tested on: Staphylococcus aureus; assay: Antimicrobial activity against Staphylococcus aureus MTCC 96 assessed as growth inhibition after 24 hrs by well diffusion method; settings: MTCC 96, 24 h
# [5] = tested on: Staphylococcus aureus; assay: Antibiofilm activity against Staphylococcus aureus MTCC 96 after 24 hrs by crystal violet staining technique
# [6] = tested on: Micrococcus luteus; assay: Antimicrobial activity against Micrococcus luteus MTCC 2470 assessed as growth inhibition after 24 hrs by well diffusion method; settings: MTCC 2470, 24 h
# [7] = tested on: Bacillus subtilis; assay: Antimicrobial activity against Bacillus subtilis MTCC 121 assessed as growth inhibition after 24 hrs by well diffusion method; settings: MTCC 121, 24 h
# [8] = tested on: Staphylococcus aureus; assay: Antibiofilm activity against Staphylococcus aureus MLS-16 MTCC 2940 after 24 hrs by crystal violet staining technique
Structure (SMILES),MBEC [1],MIC [2] [µg/mL],MIC [3] [µg/mL],MIC [4] [µg/mL],MBEC [5],MIC [6] [µg/mL],MIC [7] [µg/mL],MBEC [8]
Cc1ccc2oc(=O)c(C(c3cn(-c4ccccc4)nc3-c3ccccc3)c3c(N)n(C)c(=O)n(C)c3=O)c(O)c2c1 (stereo unspecified),inactive,> 150,> 150,4.68,10 µg/mL,2.34,2.34,inactive
Cn1c(N)c(C(c2cn(-c3ccccc3)nc2-c2ccc([N+](=O)[O-])cc2)c2c(O)c3cc(F)ccc3oc2=O)c(=O)n(C)c1=O (stereo unspecified),inactive,> 150,> 150,4.68,10 µg/mL,2.34,2.34,inactive
Cc1ccc2oc(=O)c(C(c3ccc(F)cc3)c3c(N)n(C)c(=O)n(C)c3=O)c(O)c2c1 (stereo unspecified),–,150,> 150,> 150,–,> 150,37.5,–
Cc1cc(O)c(C(c2ccc(C(F)(F)F)cc2)c2c(N)n(C)c(=O)n(C)c2=O)c(=O)o1 (stereo unspecified),–,> 150,> 150,> 150,–,> 150,150,–
COc1ccc(-c2nn(-c3ccccc3)cc2C(c2c(O)c3cc(F)ccc3oc2=O)c2c(N)n(C)c(=O)n(C)c2=O)cc1 (stereo unspecified),inactive,> 150,> 150,4.68,10 µg/mL,2.34,2.34,inactive
CCCC(c1c(O)c2cc(C)ccc2oc1=O)c1c(N)n(C)c(=O)n(C)c1=O (stereo unspecified),–,75,> 150,75,–,75,18.8,–
COc1ccc(C(c2c(O)c3ccc4ccccc4c3oc2=O)c2c(N)n(C)c(=O)n(C)c2=O)cc1OC (stereo unspecified),–,9.37,> 150,> 150,–,> 150,18.8,–
Cn1c(N)c(C(c2cn(-c3ccccc3)nc2-c2ccc(Cl)cc2)c2c(O)c3cc(F)ccc3oc2=O)c(=O)n(C)c1=O (stereo unspecified),inactive,> 150,> 150,1.17,4 µg/mL,0.58,1.17,inactive
CCOc1cc(C(c2c(O)c3cc(C)ccc3oc2=O)c2c(N)n(C)c(=O)n(C)c2=O)ccc1O (stereo unspecified),20 µg/mL,9.37,9.37,75,inactive,9.37,9.37,10 µg/mL
Cc1ccc2oc(=O)c(C(c3ccc(C(F)(F)F)cc3)c3c(N)n(C)c(=O)n(C)c3=O)c(O)c2c1 (stereo unspecified),20 µg/mL,18.8,9.37,> 150,inactive,18.8,9.37,20 µg/mL
O=C(O)c1cn(C2CC2)c2cc(N3CCNCC3)c(F)cc2c1=O [CIPROFLOXACIN],4 µg/mL,0.58,0.58,0.58,4 µg/mL,0.58,0.58,4 µg/mL
COc1cc(C(c2c(O)c3cc(F)ccc3oc2=O)c2c(N)n(C)c(=O)n(C)c2=O)ccc1O (stereo unspecified),inactive,37.5,> 150,75,inactive,9.37,9.37,40 µg/mL
Cn1c(N)c(C(c2ccc(C(F)(F)F)cc2)c2c(O)c3ccc4ccccc4c3oc2=O)c(=O)n(C)c1=O (stereo unspecified),inactive,2.34,> 150,9.37,10 µg/mL,18.8,9.37,10 µg/mL
Cc1ccc2oc(=O)c(C(c3ccc(C(C)C)cc3)c3c(N)n(C)c(=O)n(C)c3=O)c(O)c2c1 (stereo unspecified),–,150,> 150,> 150,–,75,9.37,–
Cc1ccc2oc(=O)c(C(c3ccc(C#N)cc3)c3c(N)n(C)c(=O)n(C)c3=O)c(O)c2c1 (stereo unspecified),–,150,> 150,> 150,–,> 150,> 150,–
Cc1ccc(-c2nn(-c3ccccc3)cc2C(c2c(O)c3cc(F)ccc3oc2=O)c2c(N)n(C)c(=O)n(C)c2=O)cc1 (stereo unspecified),inactive,> 150,> 150,2.34,4 µg/mL,0.58,1.17,inactive
Cc1cc(O)c(C(c2c(N)n(C)c(=O)n(C)c2=O)C2CCCCC2)c(=O)o1 (stereo unspecified),–,> 150,> 150,> 150,–,> 150,150,–
COc1cc(C(c2c(O)c3cc(F)ccc3oc2=O)c2c(N)n(C)c(=O)n(C)c2=O)cc(OC)c1O (stereo unspecified),–,37.5,> 150,> 150,–,18.8,> 150,–
Cn1c(N)c(C(c2ccc(C#N)cc2)c2c(O)c3cc(F)ccc3oc2=O)c(=O)n(C)c1=O (stereo unspecified),–,75,> 150,75,–,> 150,75,–
COc1ccc(C(c2c(O)c3cc(C)ccc3oc2=O)c2c(N)n(C)c(=O)n(C)c2=O)cc1 (stereo unspecified),–,75,> 150,> 150,–,75,75,–
Cn1c(N)c(C(c2cn(-c3ccccc3)nc2-c2ccccc2)c2c(O)c3cc(F)ccc3oc2=O)c(=O)n(C)c1=O (stereo unspecified),inactive,1.17,> 150,2.34,10 µg/mL,2.34,4.68,4 µg/mL
COc1ccc(-c2nn(-c3ccccc3)cc2C(c2c(O)c3cc(C)ccc3oc2=O)c2c(N)n(C)c(=O)n(C)c2=O)cc1 (stereo unspecified),inactive,> 150,> 150,4.68,10 µg/mL,2.34,2.34,inactive
Cn1c(N)c(C(c2ccc(C#N)cc2)c2c(O)c3ccc4ccccc4c3oc2=O)c(=O)n(C)c1=O (stereo unspecified),–,37.5,> 150,> 150,–,150,37.5,–
